{"source": "patent US6353019B1", "about": "“Macrocyclic lactones, compositions, and methods of use” (United States of America as represented by the Department …, priority 1997, dated 2002)", "origin": "cited, not measured here", "conditions": "reported by Suzumure et al., Tetrahedron Lett. 1997; cited from earlier work"}
{"substance": "lobatamide A", "values": [{"measurement": "antifungal activity", "value": "weak antifungal activity"}]}
